The values that follow come from US20100216779A1 (GLAXOSMITHKLINE LLC, priority 2007, published 2010).

One may read the IC50 as the concentration at which inhibition is half-maximal. The low end stands for higher potency, the high end for lower potency.

Some results are limits rather than exact numbers.

What all share (type): cell-based
Assay [1] has as its system NCI-H929 (multiple myeloma). The assay is described as follows: Inhibition of cell proliferation, CellTiter-Glo, NCI-H929. Conditions: Homo sapiens, 72 h. The method, boiled down: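 Cells were grown in medium with 10% FBS at 37° C, 5% CO2. Cell number was read as CellTiter-Glo luminescence (cellular ATP), with untreated wells as control.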
Assay [2] concerns the target T1, human IGF-1R (NIH-3T3 cells over expressing human IGF-1R) (Homo sapiens, UniProt P08069).
T1 construct: expressed in transfected cells; host or cells: NIH-3T3 (mouse fibroblasts)
The assay is described as follows: IGF-1R cellular autophosphorylation (DELFIA). The following applies: IGF-1 stimulated. The method, boiled down:
(§1)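 Read-out: DELFIA on lysates, receptor-specific capture antibody plus europium-labelled anti-phosphotyrosine, reported as % of IGF-1- or insulin-stimulated signal. Transfected NIH-3T3 cells got compound (30 uM–1.5 nM, 2 h) before a 15 min ligand pulse: IGF-1 30 ng/mL for IGF-1R, insulin 3 ug/mL for IR.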

The next assay relates to COLO205 (colon). The assay is described as follows: Inhibition of cell proliferation, CellTiter-Glo, COLO205. Conditions: Homo sapiens, COLO 205, 72 h. The method in brief:
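Exponentially growing COLO205 cells in medium with 10% FBS were plated below 2000 cells/well at 37 °C, 5% CO2. Untreated wells served as controls.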

Assay [3] addresses T2, IR (NIH-3T3 cells over expressing human IGF-1R or IR) (Homo sapiens, UniProt P06213).
T2 construct: expressed in transfected cells; host or cells: NIH-3T3 (mouse fibroblasts)
The assay is described as follows: IR cellular autophosphorylation (DELFIA). The following applies: NIH-3T3 cells over expressing IR, insulin stimulated. The method in brief:
as §1

T2 sequence (P06213 28-1382): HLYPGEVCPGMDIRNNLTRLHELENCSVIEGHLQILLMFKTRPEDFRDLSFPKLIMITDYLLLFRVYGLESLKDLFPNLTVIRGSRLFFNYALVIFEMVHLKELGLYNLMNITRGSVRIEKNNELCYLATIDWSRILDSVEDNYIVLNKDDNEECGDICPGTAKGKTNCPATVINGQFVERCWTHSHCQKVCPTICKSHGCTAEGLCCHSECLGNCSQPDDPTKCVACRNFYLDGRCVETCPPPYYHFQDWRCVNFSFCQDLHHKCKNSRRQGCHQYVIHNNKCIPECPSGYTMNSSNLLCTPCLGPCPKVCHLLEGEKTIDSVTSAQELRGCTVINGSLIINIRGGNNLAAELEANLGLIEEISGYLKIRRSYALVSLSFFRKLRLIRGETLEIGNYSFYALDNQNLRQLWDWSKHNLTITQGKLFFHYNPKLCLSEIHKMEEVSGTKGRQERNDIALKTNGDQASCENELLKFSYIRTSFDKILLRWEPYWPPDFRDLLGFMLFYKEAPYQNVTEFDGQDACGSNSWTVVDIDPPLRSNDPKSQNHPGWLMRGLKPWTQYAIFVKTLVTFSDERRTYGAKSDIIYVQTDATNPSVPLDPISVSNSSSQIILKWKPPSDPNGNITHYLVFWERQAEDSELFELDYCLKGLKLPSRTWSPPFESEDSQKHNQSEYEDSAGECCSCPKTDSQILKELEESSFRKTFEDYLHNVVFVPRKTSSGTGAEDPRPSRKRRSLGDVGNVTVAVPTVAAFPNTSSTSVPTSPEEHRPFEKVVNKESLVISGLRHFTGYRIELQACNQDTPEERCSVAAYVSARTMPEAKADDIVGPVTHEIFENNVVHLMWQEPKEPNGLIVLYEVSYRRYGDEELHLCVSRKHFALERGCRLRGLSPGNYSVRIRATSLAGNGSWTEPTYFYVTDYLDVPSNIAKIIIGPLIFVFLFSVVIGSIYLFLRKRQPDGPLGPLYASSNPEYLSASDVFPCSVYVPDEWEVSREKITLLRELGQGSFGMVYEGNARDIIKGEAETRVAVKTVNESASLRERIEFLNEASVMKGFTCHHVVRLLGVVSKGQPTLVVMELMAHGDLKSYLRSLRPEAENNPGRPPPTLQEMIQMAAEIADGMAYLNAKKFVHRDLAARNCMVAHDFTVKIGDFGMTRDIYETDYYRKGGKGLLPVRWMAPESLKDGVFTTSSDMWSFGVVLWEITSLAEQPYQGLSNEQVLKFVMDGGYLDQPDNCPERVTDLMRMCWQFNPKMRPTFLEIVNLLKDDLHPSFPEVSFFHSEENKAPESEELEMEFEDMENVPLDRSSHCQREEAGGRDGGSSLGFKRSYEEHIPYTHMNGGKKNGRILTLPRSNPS
T1 sequence (P08069 31-1367): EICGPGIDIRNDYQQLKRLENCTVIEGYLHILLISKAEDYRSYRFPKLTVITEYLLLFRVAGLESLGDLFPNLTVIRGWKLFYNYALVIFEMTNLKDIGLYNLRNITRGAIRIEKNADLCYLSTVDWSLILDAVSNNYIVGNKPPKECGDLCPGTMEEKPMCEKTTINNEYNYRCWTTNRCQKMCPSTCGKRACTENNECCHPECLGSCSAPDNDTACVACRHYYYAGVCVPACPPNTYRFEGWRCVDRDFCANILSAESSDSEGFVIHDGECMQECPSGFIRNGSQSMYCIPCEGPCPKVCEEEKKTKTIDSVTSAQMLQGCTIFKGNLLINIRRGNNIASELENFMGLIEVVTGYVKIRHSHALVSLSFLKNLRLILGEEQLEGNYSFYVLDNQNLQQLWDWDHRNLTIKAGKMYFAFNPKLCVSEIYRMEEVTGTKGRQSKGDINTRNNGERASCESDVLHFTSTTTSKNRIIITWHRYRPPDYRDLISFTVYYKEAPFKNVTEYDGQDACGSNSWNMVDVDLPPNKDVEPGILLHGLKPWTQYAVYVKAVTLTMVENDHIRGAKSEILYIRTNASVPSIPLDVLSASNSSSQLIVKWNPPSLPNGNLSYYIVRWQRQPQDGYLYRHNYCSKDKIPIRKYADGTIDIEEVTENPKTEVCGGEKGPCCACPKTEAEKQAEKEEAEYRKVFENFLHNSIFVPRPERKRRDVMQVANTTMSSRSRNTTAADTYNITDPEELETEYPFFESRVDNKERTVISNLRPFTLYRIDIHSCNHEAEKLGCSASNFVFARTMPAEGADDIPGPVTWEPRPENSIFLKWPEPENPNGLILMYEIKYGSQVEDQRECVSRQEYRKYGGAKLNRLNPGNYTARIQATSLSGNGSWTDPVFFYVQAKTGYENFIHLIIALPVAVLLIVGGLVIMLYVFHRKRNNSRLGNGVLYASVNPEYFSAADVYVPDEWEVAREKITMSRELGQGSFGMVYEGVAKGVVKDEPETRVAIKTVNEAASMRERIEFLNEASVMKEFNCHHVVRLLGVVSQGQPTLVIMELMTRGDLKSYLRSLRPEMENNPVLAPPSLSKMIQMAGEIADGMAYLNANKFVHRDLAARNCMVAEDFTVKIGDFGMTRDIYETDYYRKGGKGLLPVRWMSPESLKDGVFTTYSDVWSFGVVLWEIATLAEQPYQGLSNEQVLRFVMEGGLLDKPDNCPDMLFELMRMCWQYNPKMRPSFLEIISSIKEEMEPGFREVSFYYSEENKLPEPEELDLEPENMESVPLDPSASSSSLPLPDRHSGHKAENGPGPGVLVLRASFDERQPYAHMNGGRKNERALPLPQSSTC

As for `COc1cc(C2CCN(CCS(C)(=O)=O)CC2)c(C)cc1Nc1nccc(-c2c(-c3ccc(OC)c(C(=O)Nc4c(F)cccc4F)c3)nc3ccccn23)n1` [Example 163, N-(2,6-difluorophenyl)-5-(3-{2-[(5-methyl-2-(methyloxy)-4-{1-[2-(methylsulfonyl)ethyl]-4-piperidinyl}phenyl)amino]-4-pyrimidinyl}imidazo[1,2-a]pyridin-2-yl)-2-(methyloxy)benzamide], the IC50 in assay [1] is under 250 nM; in assay [2], under 100 nM; with COLO205 (colon), 250 to 1000 nM; in assay [3], under 100 nM.

For the molecule `COc1cc(C2CCN(CCS(C)(=O)=O)CC2)c(C)cc1Nc1nccc(-c2c(-c3cccc(C(=O)Nc4c(F)cccc4F)c3)nc3ccccn23)n1` [Example 165, N-(2,6-difluorophenyl)-3-(3-{2-[(5-methyl-2-(methyloxy)-4-{1-[2-(methylsulfonyl)ethyl]-4-piperidinyl}phenyl)amino]-4-pyrimidinyl}imidazo[1,2-a]pyridin-2-yl)benzamide], the IC50 was under 250 nM in assay [1], under 100 nM in assay [2], 250 to 1000 nM with COLO205 (colon) and under 100 nM in assay [3].

Consider `CCCc1cc(N2CCC(N3CCCCC3)CC2)ccc1Nc1nccc(-c2c(-c3cccc(C(=O)Nc4c(F)cccc4F)c3)nc3ccccn23)n1` [Example 41, 3-[3-(2-{[4-(1,4′-bipiperidin-1′-yl)-2-propylphenyl]amino}-4-pyrimidinyl)imidazo[1,2-a]pyridin-2-yl]-N-(2,6-difluorophenyl)benzamid], for which the IC50 in assay [1] is 250 to 1000 nM; in assay [2] it was under 100 nM; in the assay with COLO205 (colon), 250 to 1000 nM; in assay [3], 100 to 500 nM.

On to `COc1cc(N2CCN(CCS(C)(=O)=O)CC2)c(C)cc1Nc1nccc(-c2c(-c3ccc(OC)c(C(=O)Nc4c(F)cccc4F)c3)nc3ccccn23)n1` [Example 149, N-(2,6-difluorophenyl)-5-(3-{2-[(5-methyl-2-(methyloxy)-4-{4-[2-(methylsulfonyl)ethyl]-1-piperazinyl}phenyl)amino]-4-pyrimidinyl}imidazo[1,2-a]pyridin-2-yl)-2-(methyloxy)benzamide], for which the IC50 in assay [1] is under 250 nM; in assay [2] it was under 100 nM; with COLO205 (colon), under 250 nM; in assay [3] it was under 100 nM.

`CCOc1ccc(-c2nc3ccccn3c2-c2ccnc(Nc3ccc(N4CCC(N5CCC(CCS(C)(=O)=O)CC5)CC4)cc3OC)n2)cc1C(=O)Nc1c(F)cccc1F` [Example 103, N-(2,6-difluorophenyl)-2-(ethyloxy)-5-(3-{2-[(2-(methyloxy)-4-{4-[2-(methylsulfonyl)ethyl]-1,4′-bipiperidin-1′-yl}phenyl)amino]-4-pyrimidinyl}imidazo[1,2-a]pyridin-2-yl)benzamide]: the IC50 was under 250 nM in assay [1], under 100 nM in assay [2], 250 to 1000 nM with COLO205 (colon) and under 100 nM in assay [3].

Consider `COc1cc(N2CCN3CCOC[C@@H]3C2)ccc1Nc1nccc(-c2c(-c3ccc(OC)c(C(=O)Nc4c(F)cccc4F)c3)nc3ccccn23)n1` [Example 124, N-(2,6-difluorophenyl)-5-[3-(2-{[4-[(9aS)-hexahydropyrazino[2,1-c][1,4]oxazin-8(1H)-yl]-2-(methyloxy)phenyl]amino}-4-pyrimidinyl)imidazo[1,2-a]pyridin-2-yl]-2-(methyloxy)-benzamide], for which the IC50 in assay [1] is under 250 nM; in assay [2], under 100 nM; in the assay on COLO205 (colon), over 1000 nM; in assay [3], under 100 nM.

As for `COc1cc(N2CCC(N3CCN(CCF)CC3)CC2)ccc1Nc1nccc(-c2c(-c3ccc(OC)c(C(=O)Nc4c(F)cccc4F)c3)nc3ccccn23)n1` [Example 61, N-(2,6-difluorophenyl)-5-[3-(2-{[4-{4-[4-(2-fluoroethyl)-1-piperazinyl]-1-piperidinyl}-2-(methyloxy)phenyl]amino}-4-pyrimidinyl)imidazo[1,2-a]pyridin-2-yl]-2-(methyloxy)benzamide], the IC50 in assay [1] is under 250 nM; in assay [2] it was under 100 nM; in the assay with COLO205 (colon), 250 to 1000 nM; in assay [3], under 100 nM.

For `COc1cc(N2CCC(N3CCN(S(C)(=O)=O)CC3)CC2)ccc1Nc1nccc(-c2c(-c3cccc(C(=O)Nc4c(F)cccc4F)c3)nc3cc(F)ccn23)n1` [Example 196, N-(2,6-difluorophenyl)-3-(7-fluoro-3-{2-[(2-(methyloxy)-4-{4-[4-(methylsulfonyl)-1-piperazinyl]-1-piperidinyl}phenyl)amino]-4-pyrimidinyl}imidazo[1,2-a]pyridin-2-yl)benzamide], the IC50 in assay [1] is under 250 nM; in assay [2] it was under 100 nM; in the assay with COLO205 (colon), 250 to 1000 nM; in assay [3] it was under 100 nM.

Turning to `CCOc1ccc(-c2nc3ccccn3c2-c2ccnc(Nc3ccc(C4CCN(CC(C)C)CC4)cc3OC)n2)cc1C(=O)Nc1c(F)cccc1F` [Example 161, N-(2,6-difluorophenyl)-2-(ethyloxy)-5-{3-[2-({2-(methyloxy)-4-[1-(2-methylpropyl)-4-piperidinyl]phenyl}amino)-4-pyrimidinyl]imidazo[1,2-a]pyridin-2-yl}benzamide], the IC50 in assay [1] is under 250 nM; in assay [2], under 100 nM; with COLO205 (colon), 250 to 1000 nM; in assay [3] it was under 100 nM.

Turning to `CCOc1cc(N2CCC(N3CCN(S(C)(=O)=O)CC3)CC2)ccc1Nc1nccc(-c2c(-c3cccc(C(=O)Nc4c(F)cccc4F)c3)nc3ccccn23)n1` [Example 224, N-(2,6-difluorophenyl)-3-(3-{2-[(2-(ethyloxy)-4-{4-[4-(methylsulfonyl)-1-piperazinyl]-1-piperidinyl}phenyl)amino]-4-pyrimidinyl}imidazo[1,2-a]pyridin-2-yl)benzamide], the IC50 was under 250 nM in assay [1], under 100 nM in assay [2], 250 to 1000 nM in the assay on COLO205 (colon) and under 100 nM in assay [3].

For `CCOc1ccc(-c2nc3ccccn3c2-c2ccnc(Nc3ccc(N4CCC(N5CCN(CCS(C)(=O)=O)CC5)CC4)cc3OC)n2)cc1C(=O)Nc1c(F)cccc1F` [Example 66, N-(2,6-difluorophenyl)-2-(ethyloxy)-5-[3-(2-{[2-(methyloxy)-4-(4-{4-[2-(methylsulfonyl)-ethyl]-1-piperazinyl}-1-piperidinyl)phenyl]amino}-4-pyrimidinyl)imidazo[1,2-a]pyridin-2-yl]benzamide], the IC50 in assay [1] is under 250 nM; in assay [2], under 100 nM; in the assay with COLO205 (colon), 250 to 1000 nM; in assay [3], under 100 nM.

On to `CCCc1cc(C2CCN(CCS(C)(=O)=O)CC2)ccc1Nc1nccc(-c2c(-c3cccc(C(=O)Nc4c(F)cccc4F)c3)nc3ccccn23)n1` [Example 166, N-(2,6-difluorophenyl)-3-(3-{2-[(4-{1-[2-(methylsulfonyl)ethyl]-4-piperidinyl}-2-propylphenyl)amino]-4-pyrimidinyl}imidazo[1,2-a]pyridin-2-yl)benzamide], for which the IC50 in assay [1] was 250 to 1000 nM; in assay [2], under 100 nM; in the assay on COLO205 (colon), 250 to 1000 nM; in assay [3], 100 to 500 nM.

Turning to `CCCN1CCC(c2ccc(Nc3nccc(-c4c(-c5ccc(OC)c(C(=O)Nc6c(F)cccc6F)c5)nc5ccccn45)n3)c(OC)c2)CC1` [Example 137, N-(2,6-difluorophenyl)-2-(methyloxy)-5-[3-(2-{[2-(methyloxy)-4-(1-propyl-4-piperidinyl)phenyl]amino}-4-pyrimidinyl)imidazo[1,2-a]pyridin-2-yl]benzamide], the concentration for half-maximal inhibition (IC50) was under 250 nM in assay [1], under 100 nM in assay [2], 250 to 1000 nM in the assay with COLO205 (colon) and under 100 nM in assay [3].

Regarding `COc1cc(N2CCC(N3CCCN(C)CC3)CC2)ccc1Nc1nccc(-c2c(-c3cccc(C(=O)Nc4c(F)cccc4F)c3)nc3ccccn23)n1` [Example 48, N-(2,6-difluorophenyl)-3-[3-(2-{[4-[4-(4-methylhexahydro-1H-1,4-diazepin-1-yl)-1-piperidinyl}-2-(methyloxy)phenyl]amino}-4-pyrimidinyl)imidazo[1,2-a]pyridin-2-yl]benzamide], the half-maximal inhibitory concentration (IC50) is 250 to 1000 nM in assay [1], under 100 nM in assay [2], 250 to 1000 nM with COLO205 (colon) and 100 to 500 nM in assay [3].

For `COc1cc(C2CCN(C3CCN(CCS(C)(=O)=O)CC3)CC2)ccc1Nc1nccc(-c2c(-c3cccc(C(=O)Nc4c(F)cccc4F)c3)nc3ccccn23)n1` [Example 99, N-(2,6-difluorophenyl)-3-(3-{2-[(2-(methyloxy)-4-{1′-[2-(methylsulfonyl)ethyl]-1,4′-bipiperidin-4-yl}phenyl)amino]-4-pyrimidinyl}imidazo[1,2-a]pyridin-2-yl)benzamide], the IC50 in assay [1] is under 250 nM; in assay [2], under 100 nM; with COLO205 (colon) it was under 250 nM; in assay [3] it was under 100 nM.

Turning to `CCCN1CCN(c2ccc(Nc3nccc(-c4c(-c5cccc(C(=O)Nc6c(F)cccc6F)c5)nc5ccccn45)n3)c(OC)c2)CC1` [Example 173, N-(2,6-difluorophenyl)-3-[3-(2-{[2-(methyloxy)-4-(4-propyl-1-piperazinyl)phenyl]amino}-4-pyrimidinyl)imidazo[1,2-a]pyridin-2-yl]benzamide], the IC50 in assay [1] was 250 to 1000 nM; in assay [2], under 100 nM; with COLO205 (colon), 250 to 1000 nM; in assay [3], under 100 nM.
